Source: patent publication US7666864B2, “Bicyclic nitroimidazole-substituted phenyl oxazolidinones” (priority 2008, dated 2010)
Values after ≈ are worked out from the molar mass of the structure shown. Read-outs that look alike come from different tables or passages of the source.

Columns and labels:
[1] = system: Staphylococcus aureus ATCC 29213; assay: MIC against Staphylococcus aureus ATCC 29213, microbroth dilution (NCCLS); format: cell-based; settings: for activity against Staphylococcus aureus ATCC 29213 (in words): Gram-positive species; for MIC: Staphylococcus aureus, ATCC29213, microbroth dilution, read-out: MIC S. aureus ATCC# 29213
[2] = system: S. aureus ATCC# 29213 (Lzd-resistant); assay: microbe, parasite or virus in culture; format: cell-based, Staphylococcus aureus; settings: for MIC: Staphylococcus aureus, ATCC29213, linezolid-resistant isogenic strain; for MIC against strain resistant to linezolid: linezolid-resistant S. aureus
[3] = system: Mycobacterium tuberculosis H37Rv; assay: MIC against Mycobacterium tuberculosis H37Rv (method of Gruppo); format: cell-based; settings: for MIC: Mycobacterium tuberculosis, H37RV
[4] = system: Mycobacterium tuberculosis H37Rv; assay: Anaerobic activity against Mycobacterium tuberculosis H37Rv under Wayne conditions (method of Lenaerts); format: cell-based

| SMILES | activity against Staphylococcus aureus ATCC 29213 (in words) [1] | MIC [1] [µg/mL] | MIC [2] [µg/mL] | MIC against strain resistant to linezolid [2] [micg/mL] | MIC [3] [µg/mL] | fold less potent than PA-824, in vitro MIC [3] [fold] | fold less potent than linezolid, in vitro MIC [3] [fold] | M. tuberculosis H37Rv % survival at 10 ug/mL (Low O2) [4] [%] | M. tuberculosis H37Rv % survival at 10 ug/mL (Low O2) ([4]; listed as linezolid) [%] |
| --- | --- | --- | --- | --- | --- | --- | --- | --- | --- |
| CC(=O)NC[C@H]1CN(c2ccc(-c3cnc(O[C@@H]4COc5nc([N+](=O)[O-])cn5C4)nc3)c(F)c2)C(=O)O1 [Example 8, (S,S)—N-(3-{3-Fluoro-4-[2-(2-nitro-6,7-dihydro-5H-imidazo[2,1-b][1,3]oxazin-6-yloxy)-pyrimidin-5-yl]-phenyl}-2-oxo-oxazolidin-5-ylmethyl)-acetamide] | more potent than linezolid | 1 (≈ 1.95 µM) | 8 (≈ 15.6 µM) | 8 | 1 (≈ 1.95 µM) | – | – | – | – |
| CC(=O)NC[C@H]1CN(c2ccc(-c3ccc(CO[C@@H]4COc5nc([N+](=O)[O-])cn5C4)cc3)c(F)c2)C(=O)O1 [Example 31, (S,S)—N-{3-[2-Fluoro-4′-(2-nitro-6,7-dihydro-5H-imidazo[2,1-b][1,3]oxazin-6-yloxymethyl)-biphenyl-4-yl]-2-oxo-oxazolidin-5-ylmethyl}-acetamide] | more potent than linezolid | 1 (≈ 1.9 µM) | 4 (≈ 7.61 µM) | 4 | 0.5 (≈ 0.951 µM) | – | – | – | – |
| CC(=O)NC[C@H]1CN(c2ccc(OCC3(C)Cn4cc([N+](=O)[O-])nc4O3)c(F)c2)C(=O)O1 (stereo partly shown) [Example 50, N-{3-[3-Fluoro-4-(2-methyl-6-nitro-2,3-dihydro-imidazo[2,1-b]oxazol-2-ylmethoxy)-phenyl]-2-oxo-oxazolidin-5-ylmethyl}-acetamide] | – | 64 (≈ 142 µM) | – | – | 4 (≈ 8.9 µM) | 8 | 2 | 1.8 | – |
| CC(=O)NC[C@H]1CN(c2ccc(N3CCOCC3)c(F)c2)C(=O)O1 [Linezolid, linezolid, reference compound] | – | 2 (≈ 5.93 µM) | 64 (≈ 190 µM) | 64 | 2 (≈ 5.93 µM) | – | – | 28.2 | 28.2 |
| O=[N+]([O-])c1cn2c(n1)OC[C@@H](OCc1ccc(OC(F)(F)F)cc1)C2 [PA-824, reference compound] | – | > 64 | > 64 | – | 0.5 (≈ 1.39 µM) | – | – | 3.6 | – |
